Consider 15 compounds from patent US20080207725A1, “Phenyl-Pyrazole Derivatives as Non-Steroidal Glucocorticoid Receptor Ligands” (Glaxo Group Limited, a corporation, priority 2005, published 2008).

The assay relates to NFkB activity. As to the kind of experiment: Glucocorticoid mediated transrepression of NFkB activity (A549 ELAM promoter SPAP reporter, TNFα stimulated). The format is cell-based. The note with it: Human A549 lung epithelial cells, 3 ng/ml human recombinant TNFα, 16 hours; read-out: pEC50, transrepression of NFkB activity (converted). From the text: Human A549 lung epithelial cells were engineered to contain a secreted placental alkaline phosphatase gene under the control of the distal region of the NFkB dependent ELAM promoter as previously described in Ray, K. P., Farrow, S., Daly, M., Talabot, F. and Searle, N. “Induction of the E-selectin promoter by interleukin 1 and tumour necrosis factor alpha, and inhibition by glucocorticoids” Biochemical Journal (1997) 328: 707-15.
Compounds were solvated and diluted in DMSO, and transferred directly into assay plates such that the final concentration of DMSO was 0.7%. Following the addition of cells (40K per well), plates were incubated for 1 hour prior to the addition of 3 ng/ml human recombinant TNFα. Following continued incubation for 16 hours, alkaline phosphatase activity was determined by measuring the change in optical density at 405 nm with time following the addition of 0.7 volumes of assay buffer (1 mg/ml p-nitrophenylphosphate dissolved in 1M diethanolamine, 0.28M NaCl, 0.5 mM MgCl2). Dose response curves were constructed from which EC50 values were estimated.
Turning to `CC(C)(C[C@@](O)(CNC(=O)c1cnn(-c2ccccc2)c1N)C(F)(F)F)c1cccc2c1OCC2` [Example 1, (2R)-5-Amino-N-[4-(2,3-dihydro-1-benzofuran-7-yl)-2-hydroxy-4-methyl-2-(trifluoromethyl)pentyl]-1-phenyl-1H-pyrazole-4-carboxamide], the EC50 was less than 3.16 nM. `COc1ccc(F)cc1C(C)(C)C[C@@](O)(CNC(=O)c1cnn(-c2ccc(F)cc2)c1N)C(F)(F)F` [Example 2, (2R)-5-Amino-N-[4-[5-fluoro-2-(methyloxy)phenyl]-2-hydroxy-4-methyl-2-(trifluoromethyl)pentyl]-1-(4-fluorophenyl)-1H-pyrazole-4-carboxamide]: the EC50 is less than 3.16 nM.

For `COc1ccc(F)cc1C(C)(C)C[C@@](O)(CNC(=O)c1cnn(-c2ccccc2F)c1N)C(F)(F)F` [Example 3, (2R)-5-Amino-N-[4-[5-fluoro-2-(methyloxy)phenyl]-2-hydroxy-4-methyl-2-(trifluoromethyl)pentyl]-1-(2-fluorophenyl)-1H-pyrazole-4-carboxamide], the EC50 was less than 3.16 nM. The value for `COc1ccc(F)cc1C(C)(C)C[C@@](O)(CNC(=O)c1cnn(-c2ccc(F)cc2F)c1N)C(F)(F)F` [Example 4, (2R)-5-Amino-1-(2,4-difluorophenyl)-N-[4-[5-fluoro-2-(methyloxy)phenyl]-2-hydroxy-4-methyl-2-(trifluoromethyl)pentyl]-1H-pyrazole-4-carboxamide] was less than 3.16 nM; that for `COc1ccc(F)cc1C(C)(C)C[C@@](O)(CNC(=O)c1cnn(-c2ccc(Cl)cc2)c1N)C(F)(F)F` [Example 5, (2R)-5-Amino-1-(4-chlorophenyl)-N-[4-[5-fluoro-2-(methyloxy)phenyl]-2-hydroxy-4-methyl-2-(trifluoromethyl)pentyl]-1H-pyrazole-4-carboxamide] was less than 3.16 nM. The same measure for `COc1ccc(F)cc1C(C)(C)C[C@@](O)(CNC(=O)c1cnn(-c2ccccc2)c1N)C(F)(F)F` [Example 6, (2R)-5-Amino-N-[4-[5-fluoro-2-(methyloxy)phenyl]-2-hydroxy-4-methyl-2-(trifluoromethyl)pentyl]-1-phenyl-1H-pyrazole-4-carboxamide]: less than 3.16 nM. As to `CC(C)(C[C@@](O)(CNC(=O)c1cnn(-c2ccc(F)cc2)c1N)C(F)(F)F)c1cc(F)ccc1O` [Example 7, (2R)-5-Amino-N-[4-(5-fluoro-2-hydroxyphenyl)-2-hydroxy-4-methyl-2-(trifluoromethyl)pentyl]-1-(4-fluorophenyl)-1H-pyrazole-4-carboxamide], the EC50 was less than 3.16 nM. Turning to `CC(C)(C[C@@](O)(CNC(=O)c1cnn(-c2ccccc2F)c1N)C(F)(F)F)c1cc(F)ccc1O` [Example 8, (2R)-5-Amino-N-[4-(5-fluoro-2-hydroxyphenyl)-2-hydroxy-4-methyl-2-(trifluoromethyl)pentyl]-1-(2-fluorophenyl)-1H-pyrazole-4-carboxamide], the EC50 is less than 3.16 nM. The same measure for `CC(C)(C[C@@](O)(CNC(=O)c1cnn(-c2ccc(F)cc2F)c1N)C(F)(F)F)c1cc(F)ccc1O` [Example 9, (2R)-5-Amino-1-(2,4-difluorophenyl)-N-[4-(5-fluoro-2-hydroxyphenyl)-2-hydroxy-4-methyl-2-(trifluoromethyl)pentyl]-1H-pyrazole-4-carboxamide]: less than 3.16 nM; for `CC(C)(C[C@@](O)(CNC(=O)c1cnn(-c2ccc(Cl)cc2)c1N)C(F)(F)F)c1cc(F)ccc1O` [Example 10, (2R)-5-Amino-1-(4-chlorophenyl)-N-[4-(5-fluoro-2-hydroxyphenyl)-2-hydroxy-4-methyl-2-(trifluoromethyl)pentyl]-1H-pyrazole-4-carboxamide]: less than 3.16 nM; for `CC(C)(C[C@@](O)(CNC(=O)c1cnn(-c2ccccc2)c1N)C(F)(F)F)c1cc(F)ccc1O` [Example 11, (2R)-5-Amino-N-[4-(5-fluoro-2-hydroxyphenyl)-2-hydroxy-4-methyl-2-(trifluoromethyl)pentyl]-1-phenyl-1H-pyrazole-4-carboxamide]: less than 3.16 nM. Regarding `CC(C)(C[C@@](O)(CNC(=O)c1cnn(-c2ccccc2F)c1N)C(F)(F)F)c1cccc2c1OCC2` [Example 12, (2R)-5-Amino-N-[4-(2,3-dihydro-1-benzofuran-7-yl)-2-hydroxy-4-methyl-2-(trifluoromethyl)pentyl]-1-(2-fluorophenyl)-1H-pyrazole-4-carboxamide], the EC50 was less than 3.16 nM.

Regarding `CC(C)(C[C@@](O)(CNC(=O)c1cnn(-c2ccc(F)cc2)c1N)C(F)(F)F)c1cccc2c1OCC2` [Example 13, (2R)-5-Amino-N-[4-(2,3-dihydro-1-benzofuran-7-yl)-2-hydroxy-4-methyl-2-(trifluoromethyl)pentyl]-1-(4-fluorophenyl)-1H-pyrazole-4-carboxamide], the EC50 was less than 3.16 nM.

Regarding `CC(C)(C[C@@](O)(CNC(=O)c1cnn(-c2ccc(F)cc2F)c1N)C(F)(F)F)c1cccc2c1OCC2` [Example 14, (2R)-5-Amino-1-(2,4-difluorophenyl)-N-[4-(2,3-dihydro-1-benzofuran-7-yl)-2-hydroxy-4-methyl-2-(trifluoromethyl)pentyl]-1H-pyrazole-4-carboxamide], the EC50 was less than 3.16 nM. Turning to `CC(C)(C[C@@](O)(CNC(=O)c1cnn(-c2ccc(Cl)cc2)c1N)C(F)(F)F)c1cccc2c1OCC2` [Example 15, (2R)-5-Amino-1-(4-chlorophenyl)-N-[4-(2,3-dihydro-1-benzofuran-7-yl)-2-hydroxy-4-methyl-2-(trifluoromethyl)Pentyl]-1H-pyrazole-4-carboxamide], the EC50 is less than 3.16 nM.
